Measured values published in EPA's aquatic toxicity sets.

Tested on: Tetrahymena pyriformis
Assay: 48 h IGC50 (-log10 mol/L); higher = more toxic

Point of comparison: c1ccc2ccccc2c1, “48 h IGC50 (-log10 mol/L)” value 2.88. Against it:
- CCN(C)c1ccccc1 — higher, 3.29
- COc1ccc(CO)cc1O — lower, 2.01
- Cc1ccccc1C(=O)c1ccccc1 — higher, 4.37
- CCCCOc1ccc(O)cc1 — higher, 3.7
- Fc1nc(F)c(F)c(Br)c1F — within 0.2 log units, 2.87
- CC(=O)c1ccn(C)c1 — lower, 2
- O=C(c1ccccc1)c1ccc(O)cc1O — higher, 4.37
- CCCCC#CCCO — within 0.2 log units, 3.02
- CCCCC(C)O (stereo not given) — lower, 2.07
- Oc1ccc(F)cc1F — higher, 3.6
- OCCCCCCCCCCO — higher, 3.22
- N#CCCC#N — lower, 1.18
- Nc1c(Br)cc(Br)cc1[N+](=O)[O-] — higher, 4.62
- O/N=C\c1ccccc1 — within 0.2 log units, 2.89
- CCN(C)CC — lower, 2.24
- CCOC(=O)C(Br)C(C)Br (stereo not given) — higher, 4.44
- CCC#CC(O)CC (stereo not given) — within 0.2 log units, 2.97
- Cc1cccc(C)c1N — lower, 2.57
- CCC#CCC(O)CC (stereo not given) — lower, 2.62
- CC/C=C/CC(=O)O — within 0.2 log units, 2.78
- O=[N+]([O-])c1cc(I)c(O)c(I)c1 — higher, 4.81
- CCCCCCC(=O)c1ccccc1 — higher, 4.56
- CCCCC(O)CC (stereo not given) — lower, 2.51
- CC(C)CC#N — lower, 2.12
- C=CC(=O)OC(C)(C)C — higher, 3.27
- CC(=O)OC1=CCCCC1 — lower, 2.6
- CC(=O)CCc1ccc(O)cc1 — lower, 2.5
- N#CCc1ccc(Cl)cc1 — higher, 3.66
- O=C/C(Cl)=C/c1ccccc1 — higher, 4.73
- C#CCOC(=O)CC — lower, 2.35
- CCCCCCOc1ccc(N)cc1 — higher, 4.38
- O=C(CCl)CCl — higher, 5.05
- C=CCC(C(=O)OCC)C(=O)OCC — within 0.2 log units, 2.94
- CCCCOC(=O)c1ccccc1 — higher, 3.92
- CC(=O)OCCCCBr — higher, 3.39
- O=C(O)c1ccccc1Br — lower, 2.53
- O=[N+]([O-])c1ccc(O)c(F)c1 — higher, 4.07
- COC(=O)CCCBr — within 0.2 log units, 3.07
- Cc1cc(O)c(C(C)C)cc1Cl — higher, 4.85
- COC(=O)CC(=O)OC — lower, 1.71
- Cc1ccc(C#N)cc1 — within 0.2 log units, 2.9
- Cc1ccc2ccccc2n1 — higher, 3.47
- O=C(c1ccccc1)C(F)(F)F — within 0.2 log units, 2.99
- O=Cc1ccc(Cl)s1 — higher, 3.62
- CCCCCCN — within 0.2 log units, 2.78
- Cc1ccc(C)c(N)c1 — lower, 2.67
- CCCCCCC#N — within 0.2 log units, 2.76
- CCOC(=O)Cc1cccnc1 — lower, 2.06
- c1csc(-c2cccs2)c1 — higher, 4.04
- N#CCCCBr — lower, 2.54
- Cc1cc(C)c(O)c(C)c1 — higher, 3.42
- O=Cc1cc2ccccc2c2ccccc12 — higher, 4.71
- CCC(O)(CC)C(C)(C)C — within 0.2 log units, 2.83
- CCCCCOc1ccc(N)cc1 — higher, 3.97
- CC(CN)c1ccccc1 (stereo not given) — within 0.2 log units, 2.72
- CCC#CCO — lower, 2.43
- O=[N+]([O-])c1cc(Br)ccc1O — higher, 4.87
- O=Cc1ccccn1 — within 0.2 log units, 2.86
- O=C(O)CCCCCCC(=O)O — lower, 2.49
- CC(=O)c1cc(C)ccc1O — higher, 3.31
- Cc1ccc(Br)s1 — higher, 3.65
- Cc1cc(C)c(O)c(N)c1 — higher, 3.89
- ClC(Cl)c1ccccc1 — higher, 3.11
- Cc1cc[nH]c(=O)c1[N+](=O)[O-] — lower, 2.5
- COC(=O)CCCCCCC(=O)OC — higher, 3.3
- CCCCCCCCOC(C)=O — higher, 4.06
- O=[N+]([O-])c1c(F)c(F)c(F)c(F)c1F — higher, 5.43
- COC(=O)CCCCCCCCC(=O)OC — higher, 4.01
- CCCCCOC=O — lower, 2.22
- CCCNCCO — lower, 1.32
- CCC(C)(C)O — lower, 1.83
- COCC(C)N (stereo not given) — lower, 2.17
- CC(C)COC(=O)C(C)C — lower, 2.41
- COc1cc(CCO)ccc1O — within 0.2 log units, 2.82
- CCOC(=O)c1ccc(I)cc1 — higher, 4.53
- NNC(=O)CCCCC(=O)NN — lower, 1.63
- CC(=O)c1cc[nH]c1 — lower, 2.15
- OCCOc1cccc(O)c1 — lower, 2.13
- Oc1ccc(O)c(O)c1 — higher, 3.44
- CCCC[N+](=O)[O-] — lower, 2.31
- OC(CBr)CBr — higher, 3.57
- Cc1ccc([N+](=O)[O-])cc1O — higher, 3.66
- COc1ccc(C=O)cc1 — within 0.2 log units, 2.95
- CCCCCC(C)O (stereo not given) — lower, 2.53
- Cc1cnc2ccccc2n1 — within 0.2 log units, 3.02
- O=[N+]([O-])c1cc(Cl)cc(Cl)c1[N+](=O)[O-] — higher, 5.42
- c1ccc2nc3ccccc3nc2c1 — higher, 4.4
- C/C=C/C(=O)CC — higher, 3.92
- CC#CCOC(C)=O — lower, 2.12
- Cc1cc2ccccc2n1C — higher, 3.84
- CCCCCOC(=O)CC — within 0.2 log units, 2.96
- Cc1cc(Cl)ncc1[N+](=O)[O-] — higher, 3.42
- CCCC(=O)OC — lower, 1.75
- CS(C)=O — lower, 0.548
- O=C(OCCO)c1ccccc1O — within 0.2 log units, 2.92
- CCCCCCC=CCO — higher, 3.77
- C=C(C)CCC(C)=O — lower, 2.12
- CCN(CC)C(=O)CCl — higher, 3.52
- CCCCCCCCC(C)O (stereo not given) — higher, 3.99
- C=CC(=O)CCCCC — higher, 4.92
- COC(=O)c1cccc(O)c1 — within 0.2 log units, 2.95
- CC(C)C(=O)O — lower, 2.67
- Ic1ccccc1 — higher, 3.36
- CC=C(C)C(=O)OCC — lower, 2.5
- CC(C)(N)CO — lower, 1.07
- Cc1ccc(O)cc1C — higher, 3.12
- CCCCCCc1ccc(O)cc1O — higher, 4.8
- Cc1ccccc1C#N — within 0.2 log units, 2.76
- CC(C)COC(=O)c1ccccc1 — higher, 3.98
- O=C(OCc1ccccc1)c1ccc(O)cc1 — higher, 4.55
- CCC(O)Cc1ccccc1 (stereo not given) — within 0.2 log units, 2.84
- CCCCCCCCC(=O)OC — higher, 4.04
- CCOC(=O)C(C)Cl (stereo not given) — lower, 2.57
- CC(C)(CN)CO — lower, 2.08
- CCOC(=O)C(Cl)C(=O)OCC — higher, 3.63
- Oc1c(F)c(F)c(O)c(F)c1F — higher, 4.84
- CCC(N)CC — lower, 2.19
- Cc1ccc2ccccc2c1[N+](=O)[O-] — higher, 4.04
- O=[N+]([O-])c1cccc(F)c1 — higher, 3.2
- O=Cc1ccccc1Br — higher, 3.48
- C=CCOC(=O)CC — lower, 2.12
- N#CCCCCC#N — lower, 1.46
- O=C(O)c1ccc(O)cc1 — lower, 1.98
- Nc1cccc(O)c1 — lower, 2.48
- CC#CC(O)CC (stereo not given) — within 0.2 log units, 2.81
- CC#Cc1ccccc1 — higher, 3.19
- CCCN=C=S — higher, 4.69
- O=Cc1cc(C(F)(F)F)cc(Cl)c1F — higher, 4.24
- NC(=O)c1cccc([N+](=O)[O-])c1 — within 0.2 log units, 2.81
- CCOC(=O)C(C)C(=O)OCC — lower, 2.49
- CCOC(=O)C(C)Br (stereo not given) — higher, 4.06
- O=C(O)c1cc(Cl)cc(Cl)c1 — higher, 3.27
- O=Cc1ccc([N+](=O)[O-])c(O)c1 — higher, 3.27
- C/C=C/C(=O)OC(C)CC (stereo not given) — lower, 2.58
- C#CC(O)C(C)C (stereo not given) — within 0.2 log units, 2.97
- CCCCCCCCCl — higher, 3.67
- CCC(C)CO (stereo not given) — lower, 2.05
- CCOS(=O)OCC — lower, 2.01
- O=C(O)CCCl — lower, 2.67
- CCC(C)(O)c1ccccc1 (stereo not given) — within 0.2 log units, 3.06
- CCCCCCOC=O — lower, 2.62
- Oc1c(F)c(F)c(F)c(F)c1F — higher, 4.63
- CC(O)CCO (stereo not given) — lower, 0.699
- C=CC(=O)NCNC(=O)C=C — lower, 2.48
- OC1CCCCC1 — lower, 2.23
- CC(C)CCO — lower, 1.96
- N#CSCc1ccccc1 — higher, 4.05
- O=C(CBr)C(=O)CBr — higher, 4.76
- BrCCCc1ccccc1 — higher, 3.69
- Nc1c(Br)cc(Cl)cc1Br — higher, 4.52
- CCOC(=O)CI — higher, 5.92
- O=C(CBr)c1ccc2ccccc2c1 — higher, 5.96
- O=C(c1ccccc1)c1ccccc1 — higher, 3.87
- CCc1ccc(CO)cc1 — within 0.2 log units, 3.07
- CCC(=O)OCC(C)C — lower, 2.31
- NC(=O)c1cc(Cl)ccc1[N+](=O)[O-] — lower, 2.68
- Cc1ccc(CN)cc1 — within 0.2 log units, 2.99
- CCCC(CO)CCC — higher, 3.13
- CC(C)(O)Cc1ccccc1 — lower, 2.59
- Clc1cccc(Cl)c1Br — higher, 4.34
- Brc1ccncc1.Cl — lower, 2.44
- CCC(=O)Cc1ccccc1 — within 0.2 log units, 2.79
- CCCCCC1CCCC(=O)O1 (stereo not given) — within 0.2 log units, 2.92
- Oc1ccc(Cl)c(O)c1 — higher, 3.13
- N#Cc1ccc(C=O)cc1 — within 0.2 log units, 3.04
- CC(C)(C)CO — lower, 2.13
- N#CCCCc1ccccc1 — higher, 3.15
- CCCCCCCN — higher, 3.21
- NNC(=O)c1ccccc1O — higher, 3.18
